Assay results published in patent US11819476B2, “Rapamycin analogs and uses thereof” (Janssen Pharmaceutica NV, priority 2019, dated 2023).

These compounds were tested on pS6K1 in MCF7 (assay: AlphaLISA Ultra pS6K1 Assay). Details: Homo sapiens, 1.5 h; MCF7 cells, 90 min incubation.
Type: cell-based
Experimental: Example 74: AlphaLISA Ultra pS6K1 Assay
Assay Protocol: • 1. Seed MCF-7 cells in Corning 3701 plate and incubate for 20˜24 hour. 12,000˜16,000 cells will be seeded in 36 μL medium per well. • 2. Change the culture medium with fresh medium and incubate for another 2 hours. • 3. Add 12 μL (4×) compounds into the cell plate by HAMILTON. Final DMSO concentration is 0.5%. Incubate for 90 minutes. • 4. Aspirate 38 μL by HAMILTON, 10 μL rest per well. • 5. Add 10 μL 2× lysis buffer using HAMILTON; total volume in wells is 20 μL. Allow cells to shake for 30 min. Cover plate by plastic foil and store plate at −80° C. up to analysis. • 6. Thaw cell lysate at RT and transfer 10 μL lysate to assay plate (Optiplate-384). • 7. Add 5 μL acceptor beads into assay plate and incubation for 2 hours • 8. Add 5 μL donor beads and incubation for 2 hours • 9. Count the plate by EnSpire Multimode Plate Reader

SMILES | IC50 [nM]
COCCS(=O)(=O)CCOC1C[C@@H]2CC[C@@H](C)[C@@](O)(O2)C(=O)C(=O)N2CCCC[C@H]2C(=O)O[C@H]([C@H](C)C[C@@H]2CC[C@@H](OCCO)[C@H](OC)C2)CC(=O)[C@H](C)/C=C(\C)[C@@H](O)[C@@H](OC)C(=O)[C@H](C)C[C@H](C)/C=C/C=C/C=C/1C (stereo partly drawn) [Example I-25, (22E,24E,26E,27E,35R,36S,37R,38R,40S,42S,45S,46R,47R,56R)-46,56-dihydroxy-45-[(1R)-2-[(1S,3R,4R)-4-(2-hydroxyethoxy)-3-methoxy-cyclohexyl]-1-methyl-ethyl]-47-methoxy-44-[2-(2-methoxyethylsulfonyl)ethoxy]-35,36,37,38,48,49-hexamethyl-68,69-dioxa-57-azatricyclohexatriaconta-22,24,26(48),27(49)-tetraene-50,51,52,53,54-pentone] | 0.1 to 1
CO[C@@H]1C[C@H](C[C@@H](C)[C@@H]2CC(=O)[C@H](C)/C=C(\C)[C@@H](O)[C@@H](OC)C(=O)[C@H](C)C[C@H](C)/C=C/C=C/C=C(\C)C(OCCOC3COC3)C[C@@H]3CC[C@@H](C)[C@@](O)(O3)C(=O)C(=O)N3CCCC[C@H]3C(=O)O2)CC[C@H]1OCCO (stereo partly drawn) [Example I-14, (23E,25E,27E,28E,34R,35S,36R,37R,39S,41S,44S,46R,47R,56R)-46,56-dihydroxy-44-[(1R)-2-[(1S,3R,4R)-4-(2-hydroxyethoxy)-3-methoxy-cyclohexyl]-1-methyl-ethyl]-47-methoxy-34,35,36,37,48,49-hexamethyl-43-[2-(oxetan-3-yloxy)ethoxy]-67,68-dioxa-57-azatricyclohexatriaconta-23,25,27(48),28(49)-tetraene-50,51,52,53,54-pentone] | 0.1 to 1
CO[C@@H]1C[C@H](C[C@@H](C)[C@@H]2CC(=O)[C@H](C)/C=C(\C)[C@@H](O)[C@@H](OC)C(=O)[C@H](C)C[C@H](C)/C=C/C=C/C=C(\C)C(OCC3CCCCO3)C[C@@H]3CC[C@@H](C)[C@@](O)(O3)C(=O)C(=O)N3CCCC[C@H]3C(=O)O2)CC[C@H]1OCCO (stereo partly drawn) [Example I-11, (25E,27E,29E,30E,35R,36S,37R,38R,40S,43S,46S,47R,48R,57R)-47,57-dihydroxy-46-[(1R)-2-[(1S,3R,4R)-4-(2-hydroxyethoxy)-3-methoxy-cyclohexyl]-1-methyl-ethyl]-48-methoxy-35,36,37,38,49,50-hexamethyl-45-(tetrahydropyran-2-ylmethoxy)-68,69-dioxa-58-azatricyclohexatriaconta-25,27,29(49),30(50)-tetraene-51,52,53,54,55-pentone] | < 0.1
COc1ccc([C@H]2C[C@@H]3CC[C@@H](C)[C@@](O)(O3)C(=O)C(=O)N3CCCC[C@H]3C(=O)O[C@H]([C@H](C)C[C@@H]3CC[C@@H](O)[C@H](OC)C3)CC(=O)[C@H](C)/C=C(\C)[C@H](O)[C@@H](OC)C(=O)[C@H](C)C[C@H](C)/C=C/C=C/C=C/2C)c(OC)c1 [Example I-38, (26E,28E,30E,31E,36R,37S,38R,39R,41S,43S,44S,46S,47R,48R,57R)-44-(2,4-dimethoxyphenyl)-47,57-dihydroxy-46-[(1R)-2-[(1S,3R,4R)-4-hydroxy-3-methoxy-cyclohexyl]-1-methyl-ethyl]-48-methoxy-36,37,38,39,49,50-hexamethyl-67,68-dioxa-58-azatricyclohexatriaconta-26,28,30(49),31(50)-tetraene-51,52,53,54,55-pentone] | 10 to 100
CO[C@@H]1C[C@H](C[C@@H](C)[C@@H]2CC(=O)[C@H](C)/C=C(\C)[C@@H](O)[C@@H](OC)C(=O)[C@H](C)C[C@H](C)/C=C/C=C/C=C(\C)[C@H](OCCOC3COC3)C[C@@H]3CC[C@@H](C)[C@@](O)(O3)C(=O)C(=O)N3CCCC[C@H]3C(=O)O2)CC[C@H]1OCCO [Example I-8, (23E,25E,27E,28E,34R,35S,36R,37R,39S,41S,43R,44S,46R,47R,56R)-46,56-dihydroxy-44-[(1R)-2-[(1S,3R,4R)-4-(2-hydroxyethoxy)-3-methoxy-cyclohexyl]-1-methyl-ethyl]-47-methoxy-34,35,36,37,48,49-hexamethyl-43-[2-(oxetan-3-yloxy)ethoxy]-67,68-dioxa-57-azatricyclohexatriaconta-23,25,27(48),28(49)-tetraene-50,51,52,53,54-pentone] | 1 to 10
COCCS(=O)(=O)CCOC1C[C@@H]2CC[C@@H](C)[C@@](O)(O2)C(=O)C(=O)N2CCCC[C@H]2C(=O)O[C@H]([C@H](C)C[C@@H]2CC[C@@H](O)[C@H](OC)C2)CC(=O)[C@H](C)/C=C(\C)[C@@H](O)[C@@H](OC)C(=O)[C@H](C)C[C@H](C)/C=C/C=C/C=C/1C (stereo partly drawn) [Example I-26, (22E,24E,26E,27E,33R,34S,35R,36R,38S,40S,43S,44R,45R,54R)-44,54-dihydroxy-43-[(1R)-2-[(1S,3R,4R)-4-hydroxy-3-methoxy-cyclohexyl]-1-methyl-ethyl]-45-methoxy-42-[2-(2-methoxyethylsulfonyl)ethoxy]-33,34,35,36,46,47-hexamethyl-66,67-dioxa-55-azatricyclohexatriaconta-22,24,26(46),27(47)-tetraene-48,49,50,51,52-pentone] | 0.1 to 1
CO[C@@H]1C[C@H](C[C@@H](C)[C@@H]2CC(=O)[C@H](C)/C=C(\C)[C@@H](O)[C@@H](OC)C(=O)[C@H](C)C[C@H](C)/C=C/C=C/C=C(\C)C(NC(=O)OCCOCCO)C[C@@H]3CC[C@@H](C)[C@@](O)(O3)C(=O)C(=O)N3CCCC[C@H]3C(=O)O2)CC[C@H]1O (stereo partly drawn) [Example I-32, 2-(2-hydroxyethoxy)ethyl N-[(21E,23E,25E,26E,32R,33S,34R,35R,37S,39S,42S,43R,44R,54R)-43,54-dihydroxy-42-[(1R)-2-[(1S,3R,4R)-4-hydroxy-3-methoxy-cyclohexyl]-1-methyl-ethyl]-44-methoxy-32,33,34,35,45,46-hexamethyl-47,48,49,50,51-pentaoxo-67,68-dioxa-56-azatricyclohexatriaconta-21,23,25(45),26(46)-tetraen-41-yl]carbamate] | 1 to 10
CO[C@@H]1C[C@H](C[C@@H](C)[C@@H]2CC(=O)[C@H](C)/C=C(\C)[C@@H](O)[C@@H](OC)C(=O)[C@H](C)C[C@H](C)/C=C/C=C/C=C(\C)[C@H](OCCOc3ccccc3)C[C@@H]3CC[C@@H](C)[C@@](O)(O3)C(=O)C(=O)N3CCCC[C@H]3C(=O)O2)CC[C@H]1OCCO [Example I-6, (26E,28E,30E,31E,38R,39S,40R,41R,43S,45S,47R,48S,49R,50R,59R)-49,59-dihydroxy-48-[(1R)-2-[(1S,3R,4R)-4-(2-hydroxyethoxy)-3-methoxy-cyclohexyl]-1-methyl-ethyl]-50-methoxy-38,39,40,41,51,52-hexamethyl-47-(2-phenoxyethoxy)-69,70-dioxa-60-azatricyclohexatriaconta-26,28,30(51),31(52)-tetraene-53,54,55,56,57-pentone] | 1 to 10
